Test system: breast cancer patients
Experiment: Chemotherapeutic effect of anticancer agent: tumor size reduction evaluated by palpation in breast cancer patients
Format: in vivo, human
Description: An anticancer agent docetaxel (Aventis) was administered 4 times with an interval of 3 to 4 weeks, with 60 mg/M^2 (body surface area) per dosage for the breast cancer patients A through I. After the administration, the tumor size reduction was assessed.
A pathologist evaluated the tumors by palpation according to the criteria described in the following paper: Arbuck S G, Eisenhauer E A, Wanders J, Kaplan R S, Rubinstein L, Verweij J, Van Glabbeke M, van Oosterom A T, Christian M C, and Gwyther S G, “New guidelines to evaluate the response to treatment in solid tumors”, J. Natl. Cancer Inst 2000; 92: 205-21. When the tumor was evaluated with the result of “Complete response” and “Partial response”, the tumor was classified into the group of tumor size reduction. When the tumor was evaluated with the result of “Stable Disease” and “Progressive Disease”, the tumor was classified into the group of non-tumor size reduction.
An anticancer agent paclitaxel (Bristol Meyers Squibb) was administered once a week for 12 consecutive weeks, with 80 mg/M^2 (body surface area) per dosage for the breast cancer patients A through I (sic, correctly, J through P). After the administration, the tumor size reduction was assessed according to the same criterion as used in the administration of docetaxel.

[1] = docetaxel 60 mg/M^2 per dosage, 4 times with an interval of 3 to 4 weeks, breast cancer patients A through I

Compound	patients classified into non-tumor size reduction group (Stable Disease or Progressive Disease) [1]	patients classified into tumor size reduction group (Complete response or Partial response) [1]	patients who were assessed that the tumor size reduction was observed (paclitaxel 80 mg/M^2 per dosage, once a week for 12 consecutive weeks, breast cancer patients J through P)
CC(=O)O[C@@]12CO[C@@H]1C[C@H](O)[C@@]1(C)C(=O)[C@H](O)C3=C(C)[C@@H](OC(=O)[C@H](O)[C@@H](NC(=O)OC(C)(C)C)c4ccccc4)C[C@@](O)([C@@H](OC(=O)c4ccccc4)[C@H]21)C3(C)C [docetaxel]	A, B, C, and D	E, F, G, H, and I	
CC(=O)O[C@H]1C(=O)[C@@]2(C)[C@H]([C@H](OC(=O)c3ccccc3)[C@]3(O)C[C@H](OC(=O)[C@H](O)[C@@H](NC(=O)c4ccccc4)c4ccccc4)C(C)=C1C3(C)C)[C@]1(OC(C)=O)CO[C@@H]1C[C@@H]2O [paclitaxel]			K, L, M, N, O, and P
